Experimental data taken from patent US20240018153A1, “BENZENESULFONAMIDE DERIVATIVES AND USES THEREOF” (2692372 ONTARIO, INC., priority 2020, published 2024).

Key:
[1] = target: RIPK2 (Homo sapiens (Human), UniProt O43353); assay: In vitro RIPK2 inhibition; type: biochemical; conditions: for remaining activity at 1 µM: read-out: % RIPK2 Remaining activity vs DMSO (1 μM, 3 h); for remaining activity at 10 µM: read-out: % RIPK2 Remaining activity vs DMSO (10 μM, 3 h)
[2] = target: BTK (Homo sapiens (Human), UniProt Q06187); assay: HTRF KinEASE-TK kinase assay, BTK; type: biochemical; conditions: 3 h preincubation; for remaining activity at 1 µM: 1 μM compound, read-out: % BTK Remaining activity vs DMSO (1 μM, 3 h); for remaining activity at 10 µM: 10 μM compound, read-out: % BTK Remaining activity vs DMSO (10 μM, 3 h); for IC50: dose response, read-out: BTK Inhibition IC50
Outline: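 BTK activity in HTRF KinEASE-TK format, buffer containing 10 mM MnCl2, 5 mM MgCl2, 1 uM ATPγS and 1 mM TCEP; 45 min reaction with biotinylated substrate and ATP.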

[3] = target: T1, EGFR (Homo sapiens (Human), UniProt P00533); assay: A549 cell lysis and immunoassay, total EGFR degradation; type: cell-based; parameters: key: Y: EGFR bound in cells and EGFR degradation occurred; conditions: A549 cells
Description: A549 cells (ATCC) were cultured in Dulbecco's Modified Eagle's Medium (DMEM) (Wisent) supplemented with 10% FBS and 1% penicillin/streptomycin. Cells were seeded in 6-well plates at 530,000 cells/well and incubated at 37° C., 5% CO2 for 16 hours. Cells were starved in DMEM containing 1% FBS for 4 hours before they were treated with the indicated concentrations of compound or DMSO alone and incubated at 37° C., 5% CO2 for 24 hours. Prior to cell harvest and lysis, 50 ng/ml human epidermal growth factor (hEGF) (Sigma) was added to the cells and incubated at 37° C., 5% CO2 for 10 minutes. Conditioned media was discarded, and adherent cells were washed with PBS before they were scraped on ice. Cell suspensions were centrifugated at 2,000 RPM for 5 minutes at 4° C. and supernatants were discarded. Cell pellets were resuspended with 1× RIPA buffer (Millipore) and incubated on ice for 15 minutes. Protein lysates were extracted by centrifugating at 20,000 RPM for 20 minutes at 4° C. Proteins were separated and total EGFR protein levels were quantified by Simple Western Immunoassay (ProteinSimple) using the Protein Normalization Assay Module for Jess according to the manufacturer's protocol, using a protein concentration of 0.125 μg/μl and an antibody targeting EGFR (clone #EP38Y, Abcam) diluted to 1:400. Phosphorylated EGFR protein levels were quantified with the same assay using a protein concentration of 1 μg/μl and an antibody targeting pEGFR (Y1068) (Cell Signalling) diluted to 1:25. EGFR and phosphorylated EGFR levels were normalized to the Jess Protein Normalization Reagent loading control and subsequently to the DMSO control.

[4] = target: T1, EGFR; assay: HTRF KinEASE-TK kinase assay, EGFR; type: biochemical; conditions: 3 h preincubation; for remaining activity at 1 µM: 1 μM compound, read-out: % EGFR Remaining activity vs DMSO (1 μM, 3 h); for remaining activity at 10 µM: 10 μM compound, read-out: % EGFR Remaining activity vs DMSO (10 μM, 3 h); for IC50: dose response, read-out: EGFR Inhibition IC50
Outline: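 HTRF KinEASE-TK format: EGFR pre-incubated with compound at 1 and 10 uM final (0.5% DMSO) in kinase buffer with 2 mM MnCl2, 5 mM MgCl2 and 1 mM TCEP.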

[5] = target: FGFR4 (Homo sapiens (Human), UniProt P22455); assay: HTRF KinEASE-TK kinase assay, FGFR4; type: biochemical; conditions: for IC50: dose response; for remaining activity at 1 µM: read-out: % FGFR4 Remaining activity vs DMSO (1 μM, 3 h); for remaining activity at 10 µM: read-out: % FGFR4 Remaining activity vs DMSO (10 μM, 3 h)
Outline: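 Promega FGFR4 at 0.333 ng/ul (5.12 nM) preincubated with or without inhibitor for 3 h at room temperature, then reaction started with biotinylated substrate and ATP. Stopped with EDTA detection buffer containing 31.25 nM SA-XL665 and Eu-antibody; after 60 min, HTRF 665/620 nm ratio read as substrate phosphorylation.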

[6] = target: JAK3 (Homo sapiens (Human), UniProt P52333); assay: HTRF KinEASE-TK kinase assay, JAK3; type: biochemical; conditions: for remaining activity at 1 µM: read-out: % JAK3 Remaining activity vs DMSO (1 μM, 3 h); for remaining activity at 10 µM: read-out: % JAK3 Remaining activity vs DMSO (10 μM, 3 h)
Outline: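 Promega JAK3 at 0.21 nM was preincubated with inhibitor for 3 h at room temperature before biotinylated substrate and ATP were added. The reaction was stopped with EDTA detection buffer containing 31.25 nM SA-XL665 and Eu-antibody. After 60 min, the HTRF 665/620 nm emission ratio reflected substrate phosphorylation.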

[7] = target: BMX (Homo sapiens (Human), UniProt P51813); assay: HTRF KinEASE-TK kinase assay, BMX; type: biochemical; conditions: for remaining activity at 1 µM: 1 uM compound; for remaining activity at 1 µM / remaining activity at 10 µM: 3 h preincubation; for remaining activity at 10 µM: 10 uM compound; for IC50: dose response
Outline: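 Purchased BMX (0.333 ng/ul, 3.03 nM) was preincubated with or without inhibitor for 3 h at room temperature, then biotinylated substrate and ATP were added. Reactions were stopped with EDTA-containing buffer holding 31.25 nM SA-XL665 and Eu-antibody, and after 60 min phosphorylation was read as the HTRF 665/620 nm emission ratio.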

[8] = compound concentration 10, 24 h

Sequence of BTK (Q06187 whole entry): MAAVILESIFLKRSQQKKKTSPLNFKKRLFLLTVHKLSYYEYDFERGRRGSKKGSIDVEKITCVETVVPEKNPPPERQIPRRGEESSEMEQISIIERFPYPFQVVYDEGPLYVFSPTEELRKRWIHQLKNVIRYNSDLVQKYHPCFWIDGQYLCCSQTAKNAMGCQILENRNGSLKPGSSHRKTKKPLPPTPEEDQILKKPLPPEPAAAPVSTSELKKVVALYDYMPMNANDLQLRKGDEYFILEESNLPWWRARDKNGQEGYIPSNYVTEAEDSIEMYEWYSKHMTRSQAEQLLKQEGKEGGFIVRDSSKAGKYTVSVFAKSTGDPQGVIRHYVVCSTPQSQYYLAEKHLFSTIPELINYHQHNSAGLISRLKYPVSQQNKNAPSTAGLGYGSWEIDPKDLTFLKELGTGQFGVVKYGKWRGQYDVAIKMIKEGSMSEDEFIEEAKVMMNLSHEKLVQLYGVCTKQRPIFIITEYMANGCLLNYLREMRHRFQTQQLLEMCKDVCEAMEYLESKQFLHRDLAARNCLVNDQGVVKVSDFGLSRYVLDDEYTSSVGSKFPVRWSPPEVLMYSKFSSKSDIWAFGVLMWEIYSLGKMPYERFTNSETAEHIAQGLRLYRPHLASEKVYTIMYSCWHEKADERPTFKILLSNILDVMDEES
Sequence of BMX (P51813 whole entry): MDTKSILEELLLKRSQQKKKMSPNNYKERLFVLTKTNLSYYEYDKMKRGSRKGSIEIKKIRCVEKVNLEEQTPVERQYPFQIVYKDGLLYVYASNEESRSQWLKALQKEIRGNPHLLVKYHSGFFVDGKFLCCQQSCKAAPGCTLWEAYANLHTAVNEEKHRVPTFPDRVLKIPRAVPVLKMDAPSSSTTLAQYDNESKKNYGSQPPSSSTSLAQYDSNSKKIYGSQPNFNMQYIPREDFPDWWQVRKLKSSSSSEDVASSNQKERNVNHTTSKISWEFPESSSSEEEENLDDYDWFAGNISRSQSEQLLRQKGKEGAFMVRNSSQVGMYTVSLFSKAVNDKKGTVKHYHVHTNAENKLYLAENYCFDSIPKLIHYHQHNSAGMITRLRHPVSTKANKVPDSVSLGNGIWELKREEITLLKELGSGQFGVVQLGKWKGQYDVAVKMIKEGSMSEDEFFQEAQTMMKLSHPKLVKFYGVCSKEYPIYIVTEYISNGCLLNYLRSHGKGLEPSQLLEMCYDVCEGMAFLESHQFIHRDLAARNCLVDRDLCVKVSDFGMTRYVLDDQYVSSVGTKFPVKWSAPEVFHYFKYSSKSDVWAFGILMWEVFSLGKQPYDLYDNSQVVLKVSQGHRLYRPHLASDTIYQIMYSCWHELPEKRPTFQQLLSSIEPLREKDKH
Sequence of RIPK2 (O43353 whole entry, species assumed): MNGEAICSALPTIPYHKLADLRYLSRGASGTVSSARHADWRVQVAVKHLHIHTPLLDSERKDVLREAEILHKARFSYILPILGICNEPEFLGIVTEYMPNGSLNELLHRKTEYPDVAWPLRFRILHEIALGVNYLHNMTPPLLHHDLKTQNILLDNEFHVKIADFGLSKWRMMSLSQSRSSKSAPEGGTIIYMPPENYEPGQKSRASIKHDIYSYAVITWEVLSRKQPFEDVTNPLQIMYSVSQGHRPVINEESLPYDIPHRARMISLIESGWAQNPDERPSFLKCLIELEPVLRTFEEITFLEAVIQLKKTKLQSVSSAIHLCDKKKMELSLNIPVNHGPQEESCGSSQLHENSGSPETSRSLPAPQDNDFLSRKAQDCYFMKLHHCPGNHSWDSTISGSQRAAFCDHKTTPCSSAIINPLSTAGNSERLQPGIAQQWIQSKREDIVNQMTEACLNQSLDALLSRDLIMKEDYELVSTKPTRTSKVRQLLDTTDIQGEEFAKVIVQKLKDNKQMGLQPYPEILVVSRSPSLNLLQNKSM
Sequence of JAK3 (P52333 781-1124): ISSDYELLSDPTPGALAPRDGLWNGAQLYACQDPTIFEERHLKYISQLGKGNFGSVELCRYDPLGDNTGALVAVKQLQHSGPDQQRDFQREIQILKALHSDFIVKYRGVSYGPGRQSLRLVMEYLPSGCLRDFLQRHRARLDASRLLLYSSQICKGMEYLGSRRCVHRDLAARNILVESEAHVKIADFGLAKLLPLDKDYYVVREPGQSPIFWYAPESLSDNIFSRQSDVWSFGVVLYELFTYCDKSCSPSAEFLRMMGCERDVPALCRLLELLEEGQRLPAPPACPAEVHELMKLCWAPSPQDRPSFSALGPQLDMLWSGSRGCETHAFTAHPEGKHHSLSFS
Sequence of FGFR4 (P22455 22-802): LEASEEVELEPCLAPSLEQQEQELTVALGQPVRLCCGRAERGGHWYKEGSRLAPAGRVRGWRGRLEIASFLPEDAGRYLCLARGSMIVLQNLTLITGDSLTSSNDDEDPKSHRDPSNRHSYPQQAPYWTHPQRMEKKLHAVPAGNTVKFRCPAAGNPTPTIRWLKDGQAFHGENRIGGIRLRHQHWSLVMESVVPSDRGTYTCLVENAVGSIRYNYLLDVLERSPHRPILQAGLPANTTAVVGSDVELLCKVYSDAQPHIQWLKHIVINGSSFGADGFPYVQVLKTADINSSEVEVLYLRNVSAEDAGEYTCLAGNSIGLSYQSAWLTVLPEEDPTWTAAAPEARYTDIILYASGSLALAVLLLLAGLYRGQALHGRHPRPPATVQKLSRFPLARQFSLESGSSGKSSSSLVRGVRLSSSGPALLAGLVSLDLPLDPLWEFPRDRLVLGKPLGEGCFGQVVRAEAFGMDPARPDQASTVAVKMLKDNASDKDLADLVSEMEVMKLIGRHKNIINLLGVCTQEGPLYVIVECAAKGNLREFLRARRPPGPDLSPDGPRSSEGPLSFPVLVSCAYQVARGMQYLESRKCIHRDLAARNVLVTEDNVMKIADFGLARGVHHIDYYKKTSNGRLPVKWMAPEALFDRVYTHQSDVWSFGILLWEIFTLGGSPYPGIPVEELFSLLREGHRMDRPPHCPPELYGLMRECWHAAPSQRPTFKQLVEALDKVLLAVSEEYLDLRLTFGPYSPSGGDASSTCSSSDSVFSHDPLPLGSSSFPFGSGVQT
T1 sequence (P00533 25-1210): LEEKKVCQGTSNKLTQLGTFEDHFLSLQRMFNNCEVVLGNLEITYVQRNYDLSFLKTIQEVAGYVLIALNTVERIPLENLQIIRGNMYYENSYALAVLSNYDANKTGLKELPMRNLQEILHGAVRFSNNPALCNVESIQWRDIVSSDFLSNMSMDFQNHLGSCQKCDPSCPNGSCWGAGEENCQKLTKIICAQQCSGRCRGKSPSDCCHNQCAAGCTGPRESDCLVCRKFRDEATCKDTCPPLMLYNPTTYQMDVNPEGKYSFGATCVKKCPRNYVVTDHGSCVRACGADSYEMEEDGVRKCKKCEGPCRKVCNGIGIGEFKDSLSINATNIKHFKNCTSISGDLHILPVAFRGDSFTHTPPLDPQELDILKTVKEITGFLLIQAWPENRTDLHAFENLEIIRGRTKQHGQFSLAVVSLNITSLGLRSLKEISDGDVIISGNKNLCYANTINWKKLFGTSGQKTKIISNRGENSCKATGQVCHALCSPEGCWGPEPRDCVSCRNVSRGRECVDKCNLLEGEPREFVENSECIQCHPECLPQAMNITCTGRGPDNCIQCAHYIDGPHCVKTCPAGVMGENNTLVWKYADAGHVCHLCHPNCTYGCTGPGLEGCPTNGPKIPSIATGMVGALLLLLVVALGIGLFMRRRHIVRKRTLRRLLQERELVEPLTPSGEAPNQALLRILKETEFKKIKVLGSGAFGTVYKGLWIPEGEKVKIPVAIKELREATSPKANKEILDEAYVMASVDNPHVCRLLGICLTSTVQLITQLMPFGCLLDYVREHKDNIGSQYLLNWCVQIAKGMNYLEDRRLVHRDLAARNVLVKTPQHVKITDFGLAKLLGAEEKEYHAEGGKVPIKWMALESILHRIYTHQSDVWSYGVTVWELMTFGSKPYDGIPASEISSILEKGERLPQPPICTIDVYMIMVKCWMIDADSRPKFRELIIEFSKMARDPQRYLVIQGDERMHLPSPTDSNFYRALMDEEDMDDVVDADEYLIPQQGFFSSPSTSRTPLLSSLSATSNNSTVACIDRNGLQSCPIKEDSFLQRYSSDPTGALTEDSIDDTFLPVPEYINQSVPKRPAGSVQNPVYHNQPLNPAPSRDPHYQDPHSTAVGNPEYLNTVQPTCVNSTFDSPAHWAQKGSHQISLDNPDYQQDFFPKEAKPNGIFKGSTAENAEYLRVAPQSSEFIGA

Row | remaining activity at 1 µM [1] [%] | remaining activity at 10 µM [1] [%] | remaining activity at 1 µM [2] [%] | remaining activity at 10 µM [2] [%] | EGFR degradation (A549, 1 μM, 24 h) [3] | EGFR degradation (A549, compound concentration, 24 h) ([3]; compound concentration 5, 24 h) | remaining activity at 1 µM [4] [%] | remaining activity at 10 µM [4] [%] | IC50 [5] [nM] | remaining activity at 1 µM [5] [%] | remaining activity at 10 µM [5] [%] | remaining activity at 1 µM [6] [%] | remaining activity at 10 µM [6] [%] | remaining activity at 1 µM [7] [%] | remaining activity at 10 µM [7] [%] | IC50 [2] [nM] | EGFR degradation (A549, compound concentration, 24 h) [3, 8] | IC50 [4] [nM] | IC50 [7] [nM] | IC50 ([6]; dose response) [nM] | SMILES
1 | < 50 | < 50 | < 50 | < 50 | Y | Y | > 90 | > 90 | < 1000 | < 50 | < 50 | 50 to 90 | 50 to 90 | < 50 | < 50 |  |  |  |  |  | COCCOc1ccc(Nc2ncc(F)c(Nc3cccc(NC(=O)c4c(F)c(F)c(F)c(F)c4S(=O)(=O)N(C)C)c3)n2)cc1 [Compound I-59, 2-(N,N-dimethylsulfamoyl)-3,4,5,6-tetrafluoro-N-(3-((5-fluoro-2-((4-(2-methoxyethoxy)phenyl)amino)pyrimidin-4-yl)amino)phenyl)benzamide]
2 |  |  | < 50 | < 50 | Y |  | > 90 | 50 to 90 |  | < 50 | < 50 | > 90 | < 50 | < 50 | < 50 |  | Y |  |  |  | COCCOc1ccc(Nc2ncc(F)c(Nc3cccc(NC(=O)c4c(F)c(F)c(F)c(F)c4[S@+](C)[O-])c3)n2)cc1 (stereo in doubt) [Compound I-62, 2,3,4,5-tetrafluoro-N-(3-((5-fluoro-2-((4-(2-methoxyethoxy)phenyl)amino)pyrimidin-4-yl)amino)phenyl)-6-(methylsulfinyl)benzamide]
3 |  |  | < 50 | < 50 | Y |  | > 90 | > 90 |  | < 50 | < 50 | 50 to 90 | < 50 | < 50 | < 50 |  | Y |  |  |  | COCCOc1ccc(Nc2ncc(F)c(Nc3cccc(Nc4c(F)c(F)c(F)c(F)c4S(C)(=O)=O)c3)n2)cc1 [Compound I-64, 5-fluoro-N^2-(4-(2-methoxyethoxy)phenyl)-N^4-(3-((2,3,4,5-tetrafluoro-6-(methylsulfonyl)phenyl)amino)phenyl)pyrimidine-2,4-diamine]
4 |  |  | < 50 | < 50 | Y |  | > 90 | < 50 | < 1000 | < 50 | < 50 | < 50 | < 50 | < 50 | < 50 |  | Y |  |  | < 1000 | COCCOc1ccc(Nc2ncc(F)c(Nc3cccc(NC(=O)c4c(F)c(F)c(F)c(F)c4S(C)(=O)=O)c3)n2)cc1 [Compound I-61, 2,3,4,5-tetrafluoro-N-(3-((5-fluoro-2-((4-(2-methoxyethoxy)phenyl)amino)pyrimidin-4-yl)amino)phenyl)-6-(methylsulfonyl)benzamide]

Further lines, the compound ahead of its results:

Row | SMILES | remaining activity at 1 µM [1] [%] | remaining activity at 10 µM [1] [%] | remaining activity at 1 µM [2] [%] | remaining activity at 10 µM [2] [%] | EGFR degradation (A549, 1 μM, 24 h) [3] | EGFR degradation (A549, compound concentration, 24 h) ([3]; compound concentration 5, 24 h) | remaining activity at 1 µM [4] [%] | remaining activity at 10 µM [4] [%] | IC50 [5] [nM] | remaining activity at 1 µM [5] [%] | remaining activity at 10 µM [5] [%] | remaining activity at 1 µM [6] [%] | remaining activity at 10 µM [6] [%] | remaining activity at 1 µM [7] [%] | remaining activity at 10 µM [7] [%] | IC50 [2] [nM] | EGFR degradation (A549, compound concentration, 24 h) [3, 8] | IC50 [4] [nM] | IC50 [7] [nM] | IC50 ([6]; dose response) [nM]
5 | CS(=O)(=O)c1c(F)c(F)c(F)c(F)c1C(=O)NCCn1nc(-c2ccc(Oc3ccccc3)cc2)c2c(N)ncnc21 [Compound I-38, N-(2-(4-amino-3-(4-phenoxyphenyl)-1H-pyrazolo[3,4-d]pyrimidin-1-yl)ethyl)-2,3,4,5-tetrafluoro-6-(methylsulfonyl)benzamide] | > 90 | > 90 | < 50 | < 50 | Y |  | < 50 | < 50 |  | < 50 | < 50 | > 90 | < 50 | < 50 | < 50 | < 1000 | Y | > 1000 | < 1000 | 
6 | Nc1ncnc2c1c(-c1ccc(Oc3ccccc3)cc1)nn2CCCNC(=O)c1c(F)c(F)c(F)c(F)c1S(N)(=O)=O [Compound I-34, N-(3-(4-amino-3-(4-phenoxyphenyl)-1H-pyrazolo[3,4-d]pyrimidin-1-yl)propyl)-2,3,4,5-tetrafluoro-6-sulfamoylbenzamide] | > 90 | > 90 | < 50 | < 50 | Y |  | < 50 | < 50 | < 1000 | < 50 | < 50 | 50 to 90 | < 50 | < 50 | < 50 | < 1000 | Y |  | < 1000 | 
7 | C[S+]([O-])c1c(F)c(F)c(F)c(F)c1C(=O)Nc1cc2c(Nc3ccc(F)c(Cl)c3)ncnc2cc1OC1CCOC1 (stereo not shown) [Compound I-3] |  |  | 50 to 90 | 50 to 90 |  |  | < 50 | < 50 |  | > 90 | > 90 | > 90 | > 90 | 50 to 90 | > 90 |  | Y | < 1000 |  | 
8 | C[S+]([O-])c1c(F)c(F)c(F)c(F)c1Nc1cc2c(Nc3ccc(F)c(Cl)c3)ncnc2cc1O[C@H]1CCOC1 (stereo partly drawn) [Compound I-4, N^4-(3-chloro-4-fluorophenyl)-N^6-(2,3,4,5-tetrafluoro-6-(methylsulfinyl)phenyl)-7-(((S)-tetrahydrofuran-3-yl)oxy)quinazoline-4,6-diamine] |  |  | > 90 | < 50 | Y |  | < 50 | < 50 |  | > 90 | > 90 | > 90 | > 90 | > 90 | > 90 |  | Y | < 1000 |  | 
